In publication PMC9738632 (Molecules, 2022):
Converted amounts (≈) assume the structure as drawn. Where two headings read alike, the source gives them in different places.

How the values were obtained:
[1] = Cytotoxicity assay (MTT) in MDCK cells; type: cell-based, Canine; settings: dog, read-out: CC50 (50% cytotoxic concentration)
Procedure: (§1) Initially, maximum non-toxic concentrations were determined for compounds 1–22 to exclude their non-specific antiviral activity. The in vitro cytotoxicity of the tested compounds (CC50) was studied in the normal Madin-Darby Canine Kidney cell line (MDCK) by the MTT ((3-(4,5-dimethylthiazol-2-yl)-2,5-diphenyltetrazolium bromide) test. The highest concentration tested was […]. The cytotoxicity of oseltamivir carboxylate and rimantadine was also evaluated as these have been used as reference drugs in antiviral tests. Compounds at concentration that kills no more than 50% of cells (CC50) were used for further investigation of antiviral activity.
(§2) The MDCK cells were seeded onto 96-well culture plates (10^4 cells per well) and incubated at 36 °C in 5% CO2 until continuous monolayer formation. To assess the toxicity of the compounds, a series of their 3-fold dilutions, at concentrations of 300 to 3.7 μg/mL in Eagle’s Minimal Essential Medium (MEM), were prepared. The dilutions were added to the wells of the plates. The cells were incubated for 72 h at 36 °C in a CO2 incubator under 5% CO2. Further, a microtetrazolium (MTT) assay was performed on the 96-well plates. The cells were washed 2 times with saline (0.9% NaCl), and 100 μL/well of MTT solution [3-(4,5-dimethylthiazol-2-yl)-2,5-diphenyltetrazolium bromide] at a concentration of […] in MEM was added. The plates were incubated for 1 h at 36 °C, the liquid was removed, and dimethylsulfoxide (DMSO) (0.1 mL per well) was added. The optical density (OD) of the cells was measured on a Thermo Multiskan FC spectrophotometer (Thermo Fisher Scientific, Waltham, MA, USA) at a wavelength of 540 nm. Based on the obtained data, the CC50, the concentration of the compound that destroys 50% of the cells in the culture, was calculated for each specimen.

MDCK cells = test: Cytotoxicity assay (MTT) in MDCK cells; type: cell-based, Canine; settings: 72 h, read-out: CC50 (50% cytotoxic concentration)
Procedure: as §1, §2

[2] = tested on: influenza virus A/Puerto Rico/8/34 (H1N1); test: organism not typed; type: cell-based; settings: read-out: IC50 (50% inhibitory concentration)
P. aeruginosa = tested on: P. aeruginosa; parameters: method as in doi:10.3390/M1078; settings: cited from earlier work
DENV-2: 00St22A = test: Plaque reduction neutralization test (PRNT), DENV-2; type: cell-based, Dengue virus; settings: DENV-2, BHK-21 cells
Description: (§3) The dengue viruses used in this study were DENV-1:VN/2017/D7709, DENV-2: 00St22A, DENV-3: SMLC50, DENV-4: SLMC318. The virus strains were supplied by the Vietnam National Institute of Hygiene and Epidemiology. The four above serotypes of the Dengue virus were propagated in BHK-21 cell lines (provided by Nagasaki University, Japan) in Eagle’s Minimum Essential Medium (EMEM; Gibco Thermo Fischer Scientific, Waltham, MA, USA) with 2% Fetal Bovine Serum (FBS; Sigma Aldrich, St. Louis, MO, USA) at 37 °C under 5% CO2 atmosphere for 5–7 days. The BHK-21 cells were cultured using 10% FBS EMEM medium.
(§4) EMEM (1 mL) containing FBS (2%) was added into each of 24-well plates (with a concentration of […] –1.0 × 10^4 cells/well). The well plates were shaken to induce the formation of identical cell layers. Afterwards, the wells were incubated at 37 °C under 5% CO2 atmosphere overnight until the cell concentration reached at 70–90%. In case this concentration was not yet reached, the incubation was allowed to continue for a further 1 to 2 days.
(§5) The compounds 4–8 and 23 were totally dissolved in EMEM with a concentration of 500 μg/mL, which was serially diluted with step 2 with EMEM containing 2% FBS; the solutions of compounds were kept at 2–8 °C. The viruses were used at the dose of 2.5 × 10^3 PFU/mL in EMEM containing 2% FBS. The virus (100 μL) was added to all the diluted samples. The virus-compounds mixtures were incubated at 37 °C under 5% CO2 atmosphere for 60 min; afterwards, the medium in all wells of the plates was removed. The virus-compounds mixture (50 μL) was added into the wells, according to the designed experimental test concentration/dilution.
(§6) The viral medium was used as the negative control. EMEM (2 mL) containing methyl cellulose (1%) was added and re-incubated at 37 °C under 5% CO2 atmosphere for 4–6 days. The typical DENV-1 and DENV-4-induced CPE appeared after 4 days of incubation, while the durations for DENV-2 and DENV-3 were 5 and 6 days, respectively. These times of incubation allowed the formation of the plaques to be visually observable and countable. The plaques can be observed under a microscope or by eyes. The cells were fixed with formalin (3.7%) for 1 h at room temperature, washed with water, and stained with crystal violet (0.25%) for 1 h at room temperature. Finally, the plaques were counted.

DENV-4: SLMC318 = test: Plaque reduction neutralization test (PRNT), DENV-4; type: cell-based, Dengue virus; settings: DENV-4, BHK-21 cells
Description: as §3, §4, §5, §6

[3] = Cytotoxic assay (MTT) against BHK-21 cells; type: cell-based; settings: hamster, read-out: CC50 (50% cytotoxic concentration)
Procedure: The cytotoxic evaluation of the extracts was carried out against the BHK-21 cells. Under cultural conditions of EMEM with FBS (10%), the assaying cells were grown in 96-well bottom-transparent plates at a density of 6 × 10^4 cells/mL per well. The compounds that had been dissolved in dimethyl sulfoxide (DMSO) with six different concentrations (500, 250, 125, 62.5, 31.25, 15.625 μg/mL) were added into each well; each concentration was used in triplicate. After incubation at 37 °C under 5% CO2 atmosphere for 48 h, MTT (0.5 mg/mL) was added into each well; afterwards, 4 h incubation was carried out. The liquid in the wells was removed, and DMSO ([…]) was added to each well. The optical absorbance was recorded on a microplate reader at λ = 570 nm (Genious Tecan, Grödig, […]). The optical density in the wells was plotted against the logarithm of compound concentration, and 50% cytotoxic concentration (CC50), the compound concentration decreasing the optical density twice comparing to control wells, was calculated using the appropriate software (Table Curve 2Dv4.USA).

DENV-3: SMLC50 = test: Plaque reduction neutralization test (PRNT), DENV-3; type: cell-based, Dengue virus; settings: DENV-3, BHK-21 cells
Description: as §3, §4, §5, §6

S. aureus = tested on: S. aureus; parameters: method as in doi:10.3390/M1078; settings: cited from earlier work
DENV-1:VN/2017/D7709 = test: Plaque reduction neutralization test (PRNT), DENV-1; type: cell-based, Dengue virus; settings: DENV-1, BHK-21 cells
Description: as §3, §4, §5, §6

E. coli = tested on: E. coli; parameters: method as in doi:10.3390/M1078; settings: cited from earlier work

CC1(C)CC[C@]2(C(=O)NCCNCCN)CC[C@]3(C)C(=CCC4[C@@]5(C)CCC(=O)C(C)(C)C5CC[C@]43C)C2C1 (stereo partly shown) [Compound 5]
CC50 at 72 h [1]: 48 µM
CC50 (MDCK cells): 50 ± 4 µM
IC50 ([2]; MDCK, 72 h): 20 to 21 µM
IC50 [2]: > 20 µM
MIC against P. aeruginosa (P. aeruginosa): 50 µM (≈ 27 µg/mL)
PRNT50 DENV-2 (concentration that reduces plaque number by 50%) (DENV-2: 00St22A): inactive
IC50 (DENV-2: 00St22A; Dengue virus, DENV2, read-out: PRNT50 DENV-2 (concentration that reduces plaque number by 50%)): 372 ± 15 µM
PRNT50 DENV-4 (concentration that reduces plaque number by 50%) (DENV-4: SLMC318): inactive
IC50 (DENV-4: SLMC318; Dengue virus, DENV4, read-out: PRNT50 DENV-4 (concentration that reduces plaque number by 50%)): 433 ± 31 µM
CC50 at 48 h [3]: > 463 µM
PRNT50 DENV-3 (concentration that reduces plaque number by 50%) (DENV-3: SMLC50): inactive
IC50 (DENV-3: SMLC50; Dengue virus, DENV3, read-out: PRNT50 DENV-3 (concentration that reduces plaque number by 50%)): 452 ± 26 µM
MIC against S. aureus (S. aureus): 12.5 µM (≈ 6.75 µg/mL)
PRNT50 DENV-1 (concentration that reduces plaque number by 50%) (DENV-1:VN/2017/D7709): inactive
IC50 (DENV-1:VN/2017/D7709; Dengue virus, DENV1, read-out: PRNT50 DENV-1 (concentration that reduces plaque number by 50%)): 220 ± 14 µM
MIC against E. coli (E. coli): 25 µM (≈ 13.5 µg/mL)
